According to patent US20250042875A1, “PESTICIDALLY ACTIVE PYRIDAZINONE COMPOUNDS” (SYNGENTA CROP PROTECTION AG, priority 2021, published 2025):

Columns and labels:
Assay type in all cases: in vivo
Chilo suppressalis = assay: Activity against Chilo suppressalis (striped rice stemborer), artificial diet, L2 larvae; conditions: 144 h, application rate 200 ppm, 6 days after infestation, read-out: control in at least one of the three categories (mortality, anti-feedant effect, or growth inhibition)
Summary of the method: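 Artificial diet was treated with aqueous test solutions made from 10′000 ppm DMSO stocks, dried, then infested with 6-8 L2 larvae per well. Mortality, anti-feeding effect and growth inhibition were scored versus untreated samples 6 days after infestation; control means any category exceeds untreated.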

Diabrotica balteata = assay: Activity against Diabrotica balteata (corn root worm), maize sprouts, L2 larvae; conditions: 96 h, application rate 200 ppm, 4 days after infestation, read-out: control in at least one of the two categories (mortality or growth inhibition)
Experimental: Example B2: Activity Against Diabrotica Balteata (Corn Root Worm)
Maize sprouts placed onto an agar layer in 24-well microtiter plates were treated with aqueous test solutions prepared from 10′000 ppm DMSO stock solutions by spraying. After drying, the plates were infested with L2 larvae (6 to 10 per well). The samples were assessed for mortality and growth inhibition in comparison to untreated samples 4 days after infestation.

Euschistus heros = assay: Activity against Euschistus heros (neotropical brown stink bug), soybean leaves, N2 nymphs; conditions: 120 h, application rate 200 ppm, 5 days after infestation, read-out: effect in at least one of the two categories (mortality or growth inhibition)
Experimental: Example B3: Activity Against Euschistus heros (Neotropical Brown Stink Bug)
Soybean leaves on agar in 24-well microtiter plates were sprayed with aqueous test solutions prepared from 10′000 ppm DMSO stock solutions. After drying the leaves were infested with N2 nymphs. The samples were assessed for mortality and growth inhibition in comparison to untreated samples 5 days after infestation.

[1] = tested on: Frankliniella occidentalis; assay: Activity against Frankliniella occidentalis (western flower thrips), feeding/contact activity; conditions: 168 h, application rate 200 ppm, 7 days after infestation
Experimental: Example B4: Activity Against Frankliniella occidentalis (Western Flower Thrips). Feeding/Contact Activity
Sunflower leaf discs were placed on agar in 24-well microtiter plates and sprayed with aqueous test solutions prepared from […] stock solutions. After drying the leaf discs were infested with a Frankliniella population of mixed ages. The samples were assessed for mortality 7 days after infestation.

Myzus persicae [2] = assay: Activity against Myzus persicae (green peach aphid), feeding/contact activity; conditions: 144 h, application rate 200 ppm, 6 days after infestation
Experimental: Example B5: Activity Against Myzus persicae (Green Peach Aphid). Feeding/Contact Activity
Sunflower leaf discs were placed onto agar in a 24-well microtiter plate and sprayed with aqueous test solutions prepared from 10′000 ppm DMSO stock solutions. After drying, the leaf discs were infested with an aphid population of mixed ages. The samples were assessed for mortality 6 days after infestation.

Plutella xylostella = assay: Activity against Plutella xylostella (diamond back moth), artificial diet, eggs; conditions: 192 h, application rate 200 ppm, 8 days after infestation, read-out: control in at least one of the two categories (mortality or growth inhibition)
Summary of the method: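 Artificial diet was treated with aqueous dilutions of 10′000 ppm DMSO stocks, dried, then infested with Plutella eggs. Mortality and growth inhibition versus untreated samples were scored 8 days after infestation.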

Spodoptera littoralis = assay: Activity against Spodoptera littoralis (Egyptian cotton leaf worm), cotton leaf discs, L1 larvae; conditions: foliar, 72 h, application rate 200 ppm, 3 days after infestation, read-out: control in at least one of the three categories (mortality, anti-feedant effect, or growth inhibition)
Summary of the method: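 Cotton leaf discs on agar sprayed with aqueous test solutions made from 10′000 ppm DMSO stocks, then infested with five L1 larvae once dry. Mortality, anti-feeding and growth inhibition scored versus untreated samples 3 days after infestation; control counted when any category exceeds untreated.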

Myzus persicae [3] = assay: Activity against Myzus persicae (green peach aphid), intrinsic activity; conditions: 120 h, test rate 12 ppm, 5 days after infestation
Summary of the method: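 Compounds diluted from 10′000 ppm DMSO stocks were mixed with sucrose solution under a stretched Parafilm membrane. Aphid-infested pea seedlings were set on the membrane and the plate was inverted so the aphids fed through it. Mortality was scored 5 days after infestation.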

Myzus persicae [4] = assay: Activity against Myzus persicae (green peach aphid), systemic activity; conditions: 144 h, test rate 24 ppm, 6 days after placing seedlings into test solutions
Experimental: Example B9: Activity Against Myzus persicae (Green Peach Aphid). Systemic Activity
Roots of pea seedlings infested with an aphid population of mixed ages were placed directly into aqueous test solutions prepared from 10′000 DMSO stock solutions. The samples were assessed for mortality 6 days after placing seedlings into test solutions.

Tetranychus urticae = assay: Activity against Tetranychus urticae (two-spotted spider mite), feeding/contact activity; conditions: 192 h
Experimental: Example B10: Activity Against Tetranychus urticae (Two-Spotted Spider Mite). Feeding/Contact Activity
Bean leaf discs on agar in 24-well microtiter plates were sprayed with aqueous test solutions prepared from 10′000 ppm DMSO stock solutions. After drying the leaf discs were infested with a mite population of mixed ages. The samples were assessed for mortality on mixed population (mobile stages) 8 days after infestation.

C[C@H](NC(=O)c1cc(C(F)(F)F)cc(C(F)(F)F)c1)c1ncnn1C1=NN(C)C(=O)CC1 [P2, N-[(1S)-1-[2-(1-methyl-6-oxo-4,5-dihydropyridazin-3-yl)-1,2,4-triazol-3-yl]ethyl]-3,5-bis(trifluoromethyl)benzamide]
≥ 80%: percent control (mortality, anti-feedant effect or growth inhibition) at 200 ppm (Chilo suppressalis) | percent control (mortality or growth inhibition) at 200 ppm (Diabrotica balteata) | percent effect (mortality or growth inhibition) at 200 ppm (Euschistus heros) | mortality at 200 ppm [1] | mortality at 200 ppm (Myzus persicae [2]) | percent control (mortality or growth inhibition) at 200 ppm (Plutella xylostella) | percent control (mortality, anti-feedant effect or growth inhibition) at 200 ppm (Spodoptera littoralis)

C[C@@H](c1ncnn1-c1ccc(=O)n(C)n1)N(C)C(=O)c1cc(C(F)(F)F)cc(C(F)(F)F)c1 [P5, N-methyl-N-[(1S)-1-[2-(1-methyl-6-oxo-pyridazin-3-yl)-1,2,4-triazol-3-yl]ethyl]-3,5-bis(trifluoromethyl)benzamide]
≥ 80%: percent control (mortality, anti-feedant effect or growth inhibition) at 200 ppm (Chilo suppressalis) | percent control (mortality or growth inhibition) at 200 ppm (Diabrotica balteata) | percent effect (mortality or growth inhibition) at 200 ppm (Euschistus heros) | mortality at 200 ppm (Myzus persicae [2]) | mortality at 12 ppm (Myzus persicae [3]) | percent control (mortality or growth inhibition) at 200 ppm (Plutella xylostella) | percent control (mortality, anti-feedant effect or growth inhibition) at 200 ppm (Spodoptera littoralis) | mortality at 24 ppm (Myzus persicae [4])

CC(c1nccnc1-c1ccc(=O)n(C)n1)N(C)C(=O)c1cc(C(F)(F)F)cc(C(F)(F)F)c1 (stereo not shown) [P6, N-methyl-N-[1-[3-(1-methyl-6-oxo-pyridazin-3-yl)pyrazin-2-yl]ethyl]-3,5-bis(trifluoromethyl)benzamide]
≥ 80%: percent control (mortality, anti-feedant effect or growth inhibition) at 200 ppm (Chilo suppressalis) | percent control (mortality or growth inhibition) at 200 ppm (Diabrotica balteata) | mortality at 200 ppm (Myzus persicae [2]) | mortality at 12 ppm (Myzus persicae [3]) | percent control (mortality or growth inhibition) at 200 ppm (Plutella xylostella) | percent control (mortality, anti-feedant effect or growth inhibition) at 200 ppm (Spodoptera littoralis) | mortality at 24 ppm (Myzus persicae [4])

C[C@H](NC(=O)c1cc(Cl)cc(S(C)(=O)=O)c1)c1ncnn1-c1ccc(=O)n(C)n1 [P9, 3-chloro-N-[(1S)-1-[2-(1-methyl-6-oxo-pyridazin-3-yl)-1,2,4-triazol-3-yl]ethyl]-5-methylsulfonyl-benzamide]
≥ 80%: percent effect (mortality or growth inhibition) at 200 ppm (Euschistus heros) | mortality at 200 ppm [1] | mortality at 200 ppm (Myzus persicae [2]) | mortality at 12 ppm (Myzus persicae [3])

C[C@@H](c1ncnn1-c1ccc(=O)n(C)n1)N(C)C(=O)c1cc(Cl)cc(S(=O)(=O)C(F)(F)F)c1 [P18, 3-chloro-N-methyl-N-[(1S)-1-[2-(1-methyl-6-oxo-pyridazin-3-yl)-1,2,4-triazol-3-yl]ethyl]-5-(trifluoromethylsulfonyl) benzamide]
≥ 80%: percent control (mortality, anti-feedant effect or growth inhibition) at 200 ppm (Chilo suppressalis) | percent control (mortality or growth inhibition) at 200 ppm (Diabrotica balteata) | percent effect (mortality or growth inhibition) at 200 ppm (Euschistus heros) | mortality at 200 ppm (Myzus persicae [2]) | mortality at 12 ppm (Myzus persicae [3]) | percent control (mortality or growth inhibition) at 200 ppm (Plutella xylostella) | percent control (mortality, anti-feedant effect or growth inhibition) at 200 ppm (Spodoptera littoralis) | mortality at 24 ppm (Myzus persicae [4])

C[C@H](NC(=O)c1cc(Cl)cc(C(F)(F)F)c1)c1ncnn1C1=NN(C)C(=O)CC1 [P19, 3-chloro-N-[(1S)-1-[2-(1-methyl-6-oxo-4,5-dihydropyridazin-3-yl)-1,2,4-triazol-3-yl]ethyl]-5-(trifluoromethyl)benzamide]
≥ 80%: percent control (mortality, anti-feedant effect or growth inhibition) at 200 ppm (Chilo suppressalis) | percent control (mortality or growth inhibition) at 200 ppm (Diabrotica balteata) | percent effect (mortality or growth inhibition) at 200 ppm (Euschistus heros) | mortality at 200 ppm [1] | mortality at 12 ppm (Myzus persicae [3]) | percent control (mortality or growth inhibition) at 200 ppm (Plutella xylostella) | percent control (mortality, anti-feedant effect or growth inhibition) at 200 ppm (Spodoptera littoralis) | mortality at 200 ppm (Tetranychus urticae)

CC(NC(=O)c1cc(C(F)(F)F)nc(C2(C#N)CC2)c1)c1nccnc1-c1ccc(=O)n(C)n1 (stereo not shown) [P32, 2-(1-cyanocyclopropyl)-N-[1-[3-(1-methyl-6-oxo-pyridazin-3-yl)pyrazin-2-yl]ethyl]-6-(trifluoromethyl)pyridine-4-carboxamide]
≥ 80%: percent control (mortality, anti-feedant effect or growth inhibition) at 200 ppm (Chilo suppressalis) | percent control (mortality or growth inhibition) at 200 ppm (Diabrotica balteata) | percent effect (mortality or growth inhibition) at 200 ppm (Euschistus heros) | mortality at 200 ppm (Myzus persicae [2]) | mortality at 12 ppm (Myzus persicae [3]) | percent control (mortality or growth inhibition) at 200 ppm (Plutella xylostella) | percent control (mortality, anti-feedant effect or growth inhibition) at 200 ppm (Spodoptera littoralis)

C[C@H](NC(=O)c1cc(C(F)(F)F)nc(C2(C#N)CC2)c1)c1ncnn1-c1ccc(=O)n(C)n1 [P33, 2-(1-cyanocyclopropyl)-N-[(1S)-1-[2-(1-methyl-6-oxo-pyridazin-3-yl)-1,2,4-triazol-3-yl]ethyl]-6-(trifluoromethyl)pyridine-4-carboxamide]
≥ 80%: percent control (mortality, anti-feedant effect or growth inhibition) at 200 ppm (Chilo suppressalis) | percent control (mortality or growth inhibition) at 200 ppm (Diabrotica balteata) | percent effect (mortality or growth inhibition) at 200 ppm (Euschistus heros) | mortality at 200 ppm (Myzus persicae [2]) | mortality at 12 ppm (Myzus persicae [3]) | percent control (mortality or growth inhibition) at 200 ppm (Plutella xylostella) | percent control (mortality, anti-feedant effect or growth inhibition) at 200 ppm (Spodoptera littoralis)

C[C@H](NC(=O)c1cc(Br)cc(OC(F)(F)F)c1)c1ncnn1-c1ccc(=O)n(C)n1 [P40, 3-bromo-N-[(1S)-1-[2-(1-methyl-6-oxo-pyridazin-3-yl)-1,2,4-triazol-3-yl]ethyl]-5-(trifluoromethoxy)benzamide]
≥ 80%: percent control (mortality, anti-feedant effect or growth inhibition) at 200 ppm (Chilo suppressalis) | percent control (mortality or growth inhibition) at 200 ppm (Diabrotica balteata) | percent effect (mortality or growth inhibition) at 200 ppm (Euschistus heros) | mortality at 200 ppm (Myzus persicae [2]) | mortality at 12 ppm (Myzus persicae [3]) | percent control (mortality or growth inhibition) at 200 ppm (Plutella xylostella) | percent control (mortality, anti-feedant effect or growth inhibition) at 200 ppm (Spodoptera littoralis)

C[C@H](NC(=O)c1cc(C(F)(F)F)cc(C(C)(C)C#N)c1)c1ncnn1-c1ccc(=O)n(C)n1 [P43, 3-(1-cyano-1-methyl-ethyl)-N-[(1S)-1-[2-(1-methyl-6-oxo-pyridazin-3-yl)-1,2,4-triazol-3-yl]ethyl]-5-(trifluoromethyl)benzamide]
≥ 80%: percent control (mortality, anti-feedant effect or growth inhibition) at 200 ppm (Chilo suppressalis) | percent control (mortality or growth inhibition) at 200 ppm (Diabrotica balteata) | percent effect (mortality or growth inhibition) at 200 ppm (Euschistus heros) | mortality at 200 ppm (Myzus persicae [2]) | mortality at 12 ppm (Myzus persicae [3]) | percent control (mortality or growth inhibition) at 200 ppm (Plutella xylostella) | percent control (mortality, anti-feedant effect or growth inhibition) at 200 ppm (Spodoptera littoralis)
